# From patent publication US20110300067A1, “METHODS FOR INCREASING EFFICACY OF RADIOIMMUNOTHERAPY OF MELANOMA” (priority 2008, published 2011)
# Columns and labels:
# [1] = test system: A2058 human melanoma; experiment: histology of A2058 tumors from DTIC-treated mice (melanin release); format: in vivo; conditions: 50 mg/kg IP for 5 days; H&E, iron stain, melanin bleach; FIG. 3
# Experimental: Combination of chemotherapy and RIT. For combined chemotherapy with dacarbazine and RIT of A2058 melanoma-bearing nude mice, a preliminary experiment was performed which was aimed at determining the tolerability of dacarbazine by tumor-bearing mice and the ability of dacarbazine treatment to release some melanin from the melanoma cells. For this purpose 10 mg/mL dacarbazine in citrate buffer with pH ˜5.5 was prepared by dissolving 100 mg dacarbazine (Sigma) in 9.5 mL citrate buffer, pH 3.9 and 0.5 mL 0.1 M HCl. Five mice with A2058 tumors were treated for 5 days IP with 50 mg/kg dacarbazine (1.1 mg/mouse). Three days after completion of DTIC treatment, two mice were sacrificed, their tumors removed, fixed in ethanol/buffered formalin, cut into 5 μm slices and analyzed histologically for the presence of melanin by staining with hematoxylin and eosin (H&E), iron staining or by melanin bleach. The slides were viewed under 400× magnification in polarized light.
# [2] = test system: mouse melanoma models; conditions: 50 mg/kg/day×5 days; Fodstad et al. 1980; cited from earlier work
# [3] = test system: A2058 tumor metabolism; experiment: ^18F-FDG microPET of RIT or chemotherapy treated melanoma-bearing mice; format: in vivo; conditions: re-imaged one week after initial PET scan; FIG. 5
# Experimental: MicroPositron Emission Tomography (microPET) of RIT or chemotherapy treated melanoma-bearing mice. To understand the effects of RIT with melanin-binding mAbs and chemotherapy with DTIC on A2058 tumor metabolism, microPET was performed of mice treated with DTIC or with RIT. For this purpose 6-7 mm in diameter tumor-bearing mice were fasted for 3 hrs, then placed in an anesthesia chamber with 1.5% isoflurane-oxygen mixture. Anesthesia continued through the IV injection, during a 1 hr uptake and through the imaging portion of the procedure. Each mouse was placed on a heating pad before scanning to maintain normal body temperature. Mice were injected via tail-vein with 11.1 to 14.8 MBq (300 to 400 μCi) ^18F-FDG and 1 hr later imaged in an R4 microPET scanner manufactured by CTI Concorde. The Full Width at Half Maximum for the R4 is about 2.1 mm with a field of view of 120 mm and a depth of field of 78 mm. Images were acquired for 10 minutes with a lower level discrimination of 350 keV and upper level discrimination of 650 keV. The timing window was set to 6 nsec. All of the default settings were selected during the histogram process. […] Data corrected for dead time counting losses, arc correction, random coincidences and the measured uniformity of detector responses (i.e. normalized) but not corrected for attenuation or scatter. […]
# [4] = test system: metastatic melanoma; conditions: patients with metastatic melanoma; Sun and Schuchter, 2001; cited from earlier work
# [5] = test system: A2058 human melanoma; experiment: chemotherapy, RIT and combination of chemotherapy and RIT in A2058 melanoma-bearing mice; format: in vivo; conditions: FIG. 4A
# Experimental: Animal model and therapy studies. All animal studies were carried out in accordance with the guidelines of the Institutes for Animal Studies at the Albert Einstein College of Medicine. For RIT studies, 6-12 week-old female nude mice were implanted subcutaneously with 8×10^6 A2058 human melanoma cells into the right flank and used for therapeutic experiments 12 days after tumor volumes were approximately 0.15 cm^3 (0.02-0.4 cm^3).
# For the experiment comparing the efficacy of chemotherapy, RIT and combination of chemotherapy, and RIT in A2058 melanoma-bearing mice, mice were inoculated with A2058 melanoma cells, randomized into groups of five after tumor volumes reached 0.15 cm^3 (0.02-0.4 cm^3). On Day 0 the treatment of groups #1 and 2 with 50 mg/kg DTIC for 5 consecutive days IP was initiated. Mice in group #3 received a single IP injection of 1 mCi ^188Re-6D2 mAb on Day 0. Twenty-four hrs after completion of pre-treatment with DTIC (Day 6), mice in group #2 received single IP dose of 1 mCi ^188Re-6D2 mAb. Group #4 was given PBS IP on Day 0.
# Statistical analysis. The Wilcoxon rank sum test was used to compare tumor sizes between different treatment groups in therapy studies. Differences were considered statistically significant when P values were <0.05.
compound,measurement,setting,value
"CN(C)N=Nc1[nH]cnc1C(N)=O [DTIC, 5-(3,3-dimethyl-1-triazeno)imidazole-4-carboxamide]",release of melanin from tumor cells (histology),[1],releases some melanin from the cells
same,tumor growth,[2],effectively slowed tumor growth
same,^18F-FDG uptake in tumors,[3],became less diffuse and concentrated in the center of the tumor
same,response rate,[4],15% to 20%
same,tumor growth from day 15,"[5]; compared with combined treatment or RIT alone, p=0.02",started to grow much faster
same,tumor growth up to Day 15,"[5]; early time points post-therapy, compared with RIT alone",more effective in impairing tumor growth than RIT alone
